Values joined by “and” are separate entries in the source; they are usually repeats but may differ in a detail not shown here. Identical values can stand only once.
How the values were obtained:
[1] = tested on: Principal Bile Acids in Jejunum; test: Bile acid composition of jejunum after oral administration (GC-MS); type: in vivo, Sprague-Dawley rats; conditions: for UDCA mass in jejunum / Chenodeoxycholic acid mass in jejunum / Cholic acid mass in jejunum / Cholic acid percent of jejunal bile acids / Deoxycholic acid mass in jejunum / Deoxycholic acid percent of jejunal bile acids / Lithocholic acid mass in jejunum / Lithocholic acid percent of jejunal bile acids / Total bile acid mass in jejunum / UDCA percent of jejunal bile acids / Δ^22-UDCA mass in jejunum / Δ^22-UDCA percent of jejunal bile acids / Δ^22-β-Muricholic acid mass in jejunum / Δ^22-ω-Muricholic acid mass in jejunum / α-Muricholic acid mass in jejunum / β-Muricholic acid mass in jejunum / ω-Muricholic acid mass in jejunum: oral gavage 250 mg/day, 4 days, mean ± SEM; for UDCA mass in jejunum: 24 hours after final dose; for Conjugation pattern of UDCA in jejunum: anion-exchange chromatography
Procedure: (§1) Male Sprague-Dawley rats (Harlan Sprague-Dawley, Inc., Indianapolis, Ind.), weighing 210-290 g, were maintained on a 12-hour light-dark cycle and fed standard laboratory chow ad libitum for 3 days. The animals were then transferred to metabolic cages in which they were housed individually and fed the same diet. UDCA, UDCA 3-sulfate, UDCA 7-sulfate, and UDCA 3,7-disulfate were administered by gavage at a dose of 250 mg/day for 4 consecutive days. Each group comprised 3-6 rats. Body weights of the animals were measured each day. On day 5, the animals were killed by exsanguination under ether anesthesia. Plasma was collected and frozen at -20° C. The liver was removed, rinsed in normal saline, and flash-frozen in liquid nitrogen. Urine and feces were collected every 24 hours and frozen at -20° C. All animals received humane care in compliance with the "Guide for the Care and Use of Laboratory Animals" prepared by the National Academy of Sciences (National Institutes of Health publication no. 86-23, revised in 1985).
(§2) Intestinal contents were weighed and dissected into small pieces. In each group, feces (100 mg) from all animals were pooled on day 4 of the study and then ground into a fine paste. All samples were sonicated and sequentially refluxed in 80% methanol for 2 hours and chloroform/methanol (1:1) for 1 hour. Samples were taken to dryness, and the dried extracts were resuspended in 80% methanol (20 mL). Fractions of the methanolic extract (1/40 of intestinal contents and 1/20 of feces samples) were removed and the internal standard nordeoxycholic acid (10 μg) was added. This extract was diluted with 0.01 mol/L acetic acid (20 mL) and passed first through a column of Lipidex 1000 (bed size, 4×1 cm; Packard Instrument Co., Groningen, The Netherlands) and then through a Bond-Elut C18, cartridge (Analytichem, Harbor City, Calif.). Bile acids were recovered by elution of the Lipidex 1000 column and the Bond-Elut cartridge with methanol (20 mL and 5 mL, respectively), and the combined extracts were taken to dryness. Unconjugated bile acids were isolated and separated from neutral sterol and conjugated bile acids by lipophilic anion exchange chromatography on diethylaminohydroxypropyl Sephadex LH-20 (Lipidex-DEAP; Package Instrument Co.). Recovery of unconjugated bile acids was achieved by elution with 0.1 mol/L acetic acid in 72% ethanol (7 mL) followed by evaporation of the solvents. Total conjugated bile acids were recovered with 9 mL of 0.3 mol/L acetic acid in 72% ethanol, pH 9.6. Salts were removed by passage through a Bond-Elut C18 cartridge after addition of nordeoxycholic acid (10 μg), and conjugated bile acids were recovered by elution with 5 mL of methanol. Solvolysis was performed in a mixture of methanol (1 mL), distilled tetrahydrofuran (9 mL), and 1 mol/L trifluoracetic acid in dioxane (0.1 mL) and heated to 45° C for 2 hours. After solvolysis, unconjugated bile acids were isolated by chromatography on Lipidex-DEAP. Methyl ester derivatives were prepared by dissolving the sample in methanol (0.3 mL) and reacting with 2.7 mL of freshly distilled ethereal diazomethane. After evaporation of the reagents, the methyl ester derivatives were converted to trimethylsilyl ethers by the addition of […] of Tri-Sil reagent (Pierce Chemicals, Rockford, Ill.). A column of Lipidex 5000 (Packard Instrument Co.) was used to remove derivatizing reagents and to purify the sample.
Samples of liver (100 mg) were ground to a fine paste, and bile acids were extracted by reflux and passage through a column of Lipidex 1000 as described above for intestinal contents and feces. Group separation of bile acids, according to their mode of conjugation was achieved by lipophilic anion-exchange chromatography. […]

[2] = tested on: Principal Bile Acids in Colon; test: Bile acid composition of colon after oral administration (GC-MS); type: in vivo, Sprague-Dawley rats; conditions: for Chenodeoxycholic acid mass in colon / Cholic acid mass in colon / Cholic acid percent of colonic bile acids / Deoxycholic acid mass in colon / Deoxycholic acid percent of colonic bile acids / Lithocholic acid mass in colon / Lithocholic acid percent of colonic bile acids / Total bile acid mass in colon / UDCA mass in colon / UDCA percent of colonic bile acids / Δ^22-UDCA percent of colonic bile acids / Δ^22-β-Muricholic acid mass in colon / Δ^22-ω-Muricholic acid mass in colon / α-Muricholic acid mass in colon / β-Muricholic acid mass in colon / ω-Muricholic acid mass in colon / Δ^22-UDCA mass in colon: oral gavage 250 mg/day, 4 days, mean ± SEM; for Change in colonic deoxycholic / lithocholic acid (in words): oral, vs control
Procedure: as §1, §2
GC-MS analysis was performed using a Finnigan 4635 mass spectrometer (Finnigan Inc., San Jose, Calif.) that housed an identical gas chromatography column operated under the same conditions. Electron ionization (70 eV) mass spectra were recorded over the mass range of 50-800 daltons by repetitive scanning of the eluting components. […]

## C[C@H](CCC(=O)O)[C@H]1CC[C@H]2[C@@H]3[C@@H](OS(=O)(=O)O)C[C@@H]4C[C@H](O)CC[C@]4(C)[C@H]3CC[C@]12C [UDCA-7S, ursodeoxycholic acid 7-sulfate]
[1]; listed as UDCA 7-SULFATE
  UDCA mass in jejunum: 1.09 mg
[1]; listed as UDCA 7-sulfate
  UDCA mass in jejunum: 1.09 ± 0.34 mg
[1]
  Chenodeoxycholic acid mass in jejunum: 0.26 mg
  Cholic acid mass in jejunum: 15.78 mg
  Cholic acid percent of jejunal bile acids: 69.0%
  Deoxycholic acid mass in jejunum: 0.76 mg
  Deoxycholic acid percent of jejunal bile acids: 3.3%
  Lithocholic acid mass in jejunum: 0.01 mg
  Lithocholic acid percent of jejunal bile acids: 0.1%
  Total bile acid mass in jejunum: 22.91 mg
  UDCA percent of jejunal bile acids: 4.7%
  Δ^22-UDCA mass in jejunum: 0.70 mg
  Δ^22-UDCA percent of jejunal bile acids: 3.1%
  Δ^22-β-Muricholic acid mass in jejunum: 1.49 mg
  Δ^22-ω-Muricholic acid mass in jejunum: 0.26 mg
  α-Muricholic acid mass in jejunum: 0.04 mg
  β-Muricholic acid mass in jejunum: 2.21 mg
  ω-Muricholic acid mass in jejunum: 0.31 mg
[2]
  Chenodeoxycholic acid mass in colon: 0.06 mg
  Cholic acid mass in colon: 0.09 mg
  Cholic acid percent of colonic bile acids: 2.5%
  Deoxycholic acid mass in colon: 0.36 mg
  Deoxycholic acid percent of colonic bile acids: 11.4%
  Lithocholic acid mass in colon: 0.04 mg
  Lithocholic acid percent of colonic bile acids: 1.3%
  Total bile acid mass in colon: 2.98 mg
  UDCA mass in colon: 1.28 mg
  UDCA percent of colonic bile acids: 44.0%
  Δ^22-UDCA percent of colonic bile acids: 0%
  Δ^22-β-Muricholic acid mass in colon: 0.03 mg
  Δ^22-ω-Muricholic acid mass in colon: 0.15 mg
  α-Muricholic acid mass in colon: 0.03 mg
  β-Muricholic acid mass in colon: 0.06 mg
  ω-Muricholic acid mass in colon: 0.88 mg
  Change in colonic deoxycholic / lithocholic acid (in words): substantial reductions in the mass and proportion of both deoxycholic acid and lithocholic acid

## C[C@H](CCC(=O)O)[C@H]1CC[C@H]2[C@@H]3[C@@H](O)C[C@@H]4C[C@H](O)CC[C@]4(C)[C@H]3CC[C@]12C [UDCA, 3 alpha, 7 beta-dihydroxy-5 beta-cholan-24oic acid, reference compound]
[1]; oral
  Δ^22 UDCA in jejunum (in words): detected in large proportions and amounts
  Conjugation pattern of UDCA in jejunum: predominantly glyco- and tauro-UDCA, smaller amounts of unconjugated UDCA, and negligible amounts of sulfated UDCA
[1]
  UDCA mass in jejunum: 9.95 mg and 9.95 ± 0.49 mg
  Chenodeoxycholic acid mass in jejunum: 0.98 mg
  Cholic acid mass in jejunum: 4.68 mg and 4.68 ± 0.65 mg
  Cholic acid percent of jejunal bile acids: 16.8%
  Deoxycholic acid mass in jejunum: 1.56 mg
  Deoxycholic acid percent of jejunal bile acids: 5.6%
  Lithocholic acid mass in jejunum: 0.26 mg
  Lithocholic acid percent of jejunal bile acids: 1.0%
  Total bile acid mass in jejunum: 27.77 mg
  UDCA percent of jejunal bile acids: 35.9%
  Δ^22-UDCA mass in jejunum: 4.00 mg
  Δ^22-UDCA percent of jejunal bile acids: 14.5%
  Δ^22-β-Muricholic acid mass in jejunum: 0.85 mg
  Δ^22-ω-Muricholic acid mass in jejunum: 0.30 mg
  α-Muricholic acid mass in jejunum: 0.75 mg
  β-Muricholic acid mass in jejunum: 4.12 mg
  ω-Muricholic acid mass in jejunum: 0.31 mg
[2]
  Chenodeoxycholic acid mass in colon: 0.05 mg
  Cholic acid mass in colon: 0.24 mg
  Cholic acid percent of colonic bile acids: 8.9%
  Deoxycholic acid mass in colon: 0.31 mg
  Deoxycholic acid percent of colonic bile acids: 10.4%
  Lithocholic acid mass in colon: 0.97 mg
  Lithocholic acid percent of colonic bile acids: 32.0%
  Total bile acid mass in colon: 3.04 mg
  UDCA mass in colon: 0.31 mg
  UDCA percent of colonic bile acids: 8.3%
  Δ^22-UDCA mass in colon: 0.02 mg
  Δ^22-UDCA percent of colonic bile acids: 0.4%
  Δ^22-ω-Muricholic acid mass in colon: 0.19 mg
  α-Muricholic acid mass in colon: 0.01 mg
  β-Muricholic acid mass in colon: 0.13 mg
  ω-Muricholic acid mass in colon: 0.83 mg
  Change in colonic deoxycholic / lithocholic acid (in words): decrease (P=0.003) in the proportion of deoxycholic acid

## C[C@H](CCC(=O)O)[C@H]1CC[C@H]2[C@@H]3[C@@H](O)C[C@@H]4C[C@H](OS(=O)(=O)O)CC[C@]4(C)[C@H]3CC[C@]12C [UDCA-3S, ursodeoxycholic acid 3-sulfate]
[1]; oral
  Δ^22 UDCA in jejunum (in words): detected in large proportions and amounts
  Conjugation pattern of UDCA in jejunum: substantial proportions of amidated UDCA
[1]; listed as UDCA 3-SULFATE
  UDCA mass in jejunum: 3.67 mg
[1]; listed as UDCA 3-sulfate
  UDCA mass in jejunum: 3.67 ± 0.45 mg
[1]
  Chenodeoxycholic acid mass in jejunum: 0.43 mg
  Cholic acid mass in jejunum: 8.49 mg
  Cholic acid percent of jejunal bile acids: 37.7%
  Deoxycholic acid mass in jejunum: 1.96 mg
  Deoxycholic acid percent of jejunal bile acids: 8.4%
  Lithocholic acid mass in jejunum: 0.07 mg
  Lithocholic acid percent of jejunal bile acids: 0.3%
  Total bile acid mass in jejunum: 22.57 mg
  UDCA percent of jejunal bile acids: 16.4%
  Δ^22-UDCA mass in jejunum: 2.04 mg
  Δ^22-UDCA percent of jejunal bile acids: 9.2%
  Δ^22-β-Muricholic acid mass in jejunum: 2.09 mg
  Δ^22-ω-Muricholic acid mass in jejunum: 0.24 mg
  α-Muricholic acid mass in jejunum: 0.18 mg
  β-Muricholic acid mass in jejunum: 3.02 mg
  ω-Muricholic acid mass in jejunum: 0.37 mg
[1]; oral, vs control
  Change in proportion of cholic acid in jejunum (in words): decrease (P=0.05) in the proportion of cholic acid but to a lesser extent than UDCA
[2]
  Chenodeoxycholic acid mass in colon: 0.06 mg
  Cholic acid mass in colon: 0.44 mg
  Cholic acid percent of colonic bile acids: 13.8%
  Deoxycholic acid mass in colon: .58 mg
  Deoxycholic acid percent of colonic bile acids: 17.4%
  Lithocholic acid mass in colon: 0.61 mg
  Lithocholic acid percent of colonic bile acids: 18.4%
  Total bile acid mass in colon: 4.07 mg
  UDCA mass in colon: 0.05 mg
  UDCA percent of colonic bile acids: 1.5 ± 0.2%
  Δ^22-UDCA mass in colon: 0.01 mg
  Δ^22-UDCA percent of colonic bile acids: 0.2 ± 0.1%
  Δ^22-β-Muricholic acid mass in colon: 0.01 mg
  Δ^22-ω-Muricholic acid mass in colon: 0.44 mg
  α-Muricholic acid mass in colon: 0.02 mg
  β-Muricholic acid mass in colon: 0.20 mg
  ω-Muricholic acid mass in colon: 1.67 mg

Source: patent US5763435A, “Sulfate conjugates of ursodeoxycholic acid, and their beneficial use in inflammatory disorders” (priority 1995, dated 1998)
